Data taken from PubChem BioAssay (NCI).
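The concentration for 50% growth inhibition is given as GI50. TGI marks complete inhibition of growth.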

How the values were obtained:
Assay in all cases: growth of human tumour cells (NCI), 384-well format
[1] = system: SW-620 colon
[2] = system: K-562 leukemia
[3] = system: A549 NSCLC
[4] = system: HCC-2998 colon
[5] = system: MDA-MB-435 melanoma
[6] = system: U251 glioblastoma
[7] = system: EKVX NSCLC
[8] = system: UACC-257 melanoma
[9] = system: HT29 colon
[10] = system: MALME-3M melanoma
[11] = system: COLO 205 colon
[12] = system: NCI-H522 lung
[13] = system: MCF7 breast
[14] = system: SN12C renal
[15] = system: CCRF-CEM leukemia
[16] = system: HOP-92 NSCLC
[17] = system: NCI-H23 lung
[18] = system: SF-268 CNS
[19] = system: M14 melanoma
[20] = system: RXF 393 renal
[21] = system: NCI/ADR-RES ovarian
[22] = system: OVCAR-4 ovarian
[23] = system: SF-295 CNS
[24] = system: SNB-75 CNS
[25] = system: PC-3 prostate
[26] = system: MOLT-4 leukemia
[27] = system: 786-0 renal
[28] = system: DU-145 prostate
[29] = system: SR leukemia
[30] = system: OVCAR-3 ovarian
[31] = system: NCI-H322M lung
[32] = system: OVCAR-5 ovarian
[33] = system: SNB-19 CNS
[34] = system: HS 578T breast
[35] = system: MDA-MB-468 breast
[36] = system: NCI-H226 lung
[37] = system: SF-539 CNS
[38] = system: CAKI-1 renal
[39] = system: TK-10 renal
[40] = system: SK-MEL-5 melanoma
[41] = system: BT-549 breast
[42] = system: NCI-H460 NSCLC
[43] = system: UO-31 renal
[44] = system: HCT-15 colon
[45] = system: KM12 colon
[46] = system: T-47D breast
[47] = system: A498 renal
[48] = system: RPMI-8226 leukemia
[49] = system: UACC-62 melanoma
[50] = system: ACHN renal
[51] = system: HL-60(TB) leukemia
[52] = system: SK-OV-3 ovarian
[53] = system: MDA-MB-231 breast
[54] = system: SK-MEL-28 melanoma
[55] = system: OVCAR-8 ovarian
[56] = system: LOX IMVI melanoma
[57] = system: IGROV1 ovarian
[58] = system: HOP-62 NSCLC

## CNC(=O)c1cccc(-c2ccc3c(N4CCOC[C@@H]4C)nc(N4CCOC[C@@H]4C)nc3n2)c1
[1]
  GI50: 635 nM
[2]
  GI50: 480 nM
[3]
  GI50: 152 nM
[4]
  GI50: 662 nM
[5]
  GI50: 280 nM
  TGI: 1610 nM
[6]
  GI50: 637 nM
[7]
  GI50: 161 nM
  TGI: 1870 nM
[8]
  GI50: 218 nM
  TGI: 958 nM
[9]
  GI50: 546 nM
[10]
  GI50: 19 nM
  TGI: 161 nM
[11]
  GI50: 154 nM
[12]
  GI50: 68.6 nM
[13]
  GI50: 59.7 nM
[14]
  GI50: 142 nM
  TGI: 8.26 µM
[15]
  GI50: 197 nM
[16]
  GI50: 97.2 nM
  TGI: 1660 nM
[17]
  GI50: 314 nM
[18]
  GI50: 433 nM
[19]
  GI50: 143 nM
[20]
  GI50: 330 nM
[21]
  GI50: 534 nM
[22]
  GI50: 111 nM
  TGI: 595 nM
[23]
  GI50: 112 nM
  TGI: 545 nM
[24]
  GI50: 121 nM
[25]
  GI50: 71.9 nM
  TGI: 8.3 µM
[26]
  GI50: 98.7 nM
  TGI: 1040 nM
[27]
  GI50: 348 nM
[28]
  GI50: 341 nM
[29]
  GI50: 53.6 nM
  TGI: 239 nM
[30]
  GI50: 257 nM
[31]
  GI50: 130 nM
[32]
  GI50: 139 nM
[33]
  GI50: 2330 nM
[34]
  GI50: 105 nM
  TGI: 381 nM
[35]
  GI50: 33.2 nM
  TGI: 277 nM
[36]
  GI50: 182 nM
  TGI: 857 nM
[37]
  GI50: 305 nM
[38]
  GI50: 214 nM
  TGI: 5.52 µM
[39]
  GI50: 260 nM
  TGI: 3.83 µM
[40]
  GI50: 62 nM
  TGI: 295 nM
[41]
  GI50: 213 nM
  TGI: 1360 nM
[42]
  GI50: 37.9 nM
[43]
  GI50: 505 nM
  TGI: 7.86 µM
[44]
  GI50: 187 nM
[45]
  GI50: 156 nM
[46]
  GI50: 20.4 nM
  TGI: 116 nM
[47]
  GI50: 32.9 nM
  TGI: 374 nM
[48]
  GI50: 12.8 nM
  TGI: 40.1 nM
[49]
  GI50: 152 nM
  TGI: 727 nM
[50]
  GI50: 162 nM
[51]
  GI50: 1360 nM
[52]
  GI50: 116 nM
  TGI: 1580 nM
[53]
  GI50: 207 nM
[54]
  GI50: 131 nM
  TGI: 1170 nM
[55]
  GI50: 370 nM
[56]
  GI50: 298 nM
  TGI: 1780 nM
[57]
  GI50: 42.5 nM
  TGI: 284 nM
[58]
  GI50: 269 nM
